What was measured:
[1] = biological target: Calcium/calmodulin-dependent protein kinase type 1D (Homo sapiens) (UniProt Q8IU85); assay: Inhibition of human CAMK1d at 500 nM by HotSpot assay relative to control
[2] = biological target: T1, Ephrin type-A receptor 1 (Homo sapiens) (UniProt P21709); assay: Inhibition of human EPHA1 at 500 nM by HotSpot assay relative to control
T1 sequence (whole entry): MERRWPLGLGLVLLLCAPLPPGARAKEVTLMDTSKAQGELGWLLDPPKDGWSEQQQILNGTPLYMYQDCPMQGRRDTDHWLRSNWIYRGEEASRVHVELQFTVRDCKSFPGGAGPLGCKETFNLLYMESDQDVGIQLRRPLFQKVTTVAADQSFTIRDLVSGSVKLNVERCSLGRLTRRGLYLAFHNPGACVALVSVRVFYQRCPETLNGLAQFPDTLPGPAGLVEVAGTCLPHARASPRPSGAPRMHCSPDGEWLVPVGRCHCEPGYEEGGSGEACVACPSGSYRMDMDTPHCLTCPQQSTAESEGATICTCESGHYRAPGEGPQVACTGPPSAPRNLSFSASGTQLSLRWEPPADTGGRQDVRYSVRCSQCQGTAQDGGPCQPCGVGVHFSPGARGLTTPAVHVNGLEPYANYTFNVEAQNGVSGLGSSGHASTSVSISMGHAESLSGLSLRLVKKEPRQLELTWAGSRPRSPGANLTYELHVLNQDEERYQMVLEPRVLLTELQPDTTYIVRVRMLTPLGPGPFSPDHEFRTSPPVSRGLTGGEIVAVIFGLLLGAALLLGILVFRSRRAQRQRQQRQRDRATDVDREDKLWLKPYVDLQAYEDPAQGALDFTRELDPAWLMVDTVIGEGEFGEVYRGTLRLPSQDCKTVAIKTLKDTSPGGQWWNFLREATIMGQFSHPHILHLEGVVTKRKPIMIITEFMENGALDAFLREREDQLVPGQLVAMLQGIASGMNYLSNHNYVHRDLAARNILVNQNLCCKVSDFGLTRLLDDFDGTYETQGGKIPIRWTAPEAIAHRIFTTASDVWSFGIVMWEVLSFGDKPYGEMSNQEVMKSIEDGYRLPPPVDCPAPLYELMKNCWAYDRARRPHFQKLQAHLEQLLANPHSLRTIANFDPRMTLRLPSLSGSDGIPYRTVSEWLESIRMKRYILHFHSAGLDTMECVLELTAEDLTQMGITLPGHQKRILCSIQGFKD

[3] = biological target: Dual specificity mitogen-activated protein kinase kinase 2 (Homo sapiens) (UniProt P36507); assay: Inhibition of human MEK2 at 500 nM by HotSpot assay relative to control
Dual specificity mitogen-activated protein kinase kinase 2 (Homo sapiens), sequence (P36507 whole entry): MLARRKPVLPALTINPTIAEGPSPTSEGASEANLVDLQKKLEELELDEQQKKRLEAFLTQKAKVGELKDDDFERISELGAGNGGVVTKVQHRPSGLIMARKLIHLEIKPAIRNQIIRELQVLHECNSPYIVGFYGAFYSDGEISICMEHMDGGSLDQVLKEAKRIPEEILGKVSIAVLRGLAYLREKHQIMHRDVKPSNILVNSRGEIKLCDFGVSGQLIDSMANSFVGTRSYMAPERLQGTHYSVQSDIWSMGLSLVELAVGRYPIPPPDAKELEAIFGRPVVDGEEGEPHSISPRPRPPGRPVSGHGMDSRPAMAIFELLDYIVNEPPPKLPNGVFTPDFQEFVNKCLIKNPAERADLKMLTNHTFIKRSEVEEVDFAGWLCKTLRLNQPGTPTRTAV

[4] = biological target: Receptor-interacting serine/threonine-protein kinase 2 (Homo sapiens) (UniProt O43353); assay: Inhibition of human RIPK2 at 500 nM by HotSpot assay relative to control
Receptor-interacting serine/threonine-protein kinase 2 (Homo sapiens), sequence (O43353 whole entry): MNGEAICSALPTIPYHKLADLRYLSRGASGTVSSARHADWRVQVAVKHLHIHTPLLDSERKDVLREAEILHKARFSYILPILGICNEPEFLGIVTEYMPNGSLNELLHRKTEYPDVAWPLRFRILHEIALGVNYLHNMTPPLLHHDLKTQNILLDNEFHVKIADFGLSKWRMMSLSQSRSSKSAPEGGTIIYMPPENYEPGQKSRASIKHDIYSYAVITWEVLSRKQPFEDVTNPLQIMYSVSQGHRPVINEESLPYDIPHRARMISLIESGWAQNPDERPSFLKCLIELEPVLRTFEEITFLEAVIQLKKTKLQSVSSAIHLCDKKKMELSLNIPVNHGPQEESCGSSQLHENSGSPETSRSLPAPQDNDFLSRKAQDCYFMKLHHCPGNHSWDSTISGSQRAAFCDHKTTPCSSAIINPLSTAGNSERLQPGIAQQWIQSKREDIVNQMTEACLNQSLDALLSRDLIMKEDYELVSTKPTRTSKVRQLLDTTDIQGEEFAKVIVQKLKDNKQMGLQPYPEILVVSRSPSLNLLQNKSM

[5] = biological target: Serine/threonine-protein kinase SIK2 (Homo sapiens) (UniProt Q9H0K1); assay: Inhibition of human SIK2 at 500 nM by HotSpot assay relative to control
Serine/threonine-protein kinase SIK2 (Homo sapiens), sequence (Q9H0K1 whole entry, looked up): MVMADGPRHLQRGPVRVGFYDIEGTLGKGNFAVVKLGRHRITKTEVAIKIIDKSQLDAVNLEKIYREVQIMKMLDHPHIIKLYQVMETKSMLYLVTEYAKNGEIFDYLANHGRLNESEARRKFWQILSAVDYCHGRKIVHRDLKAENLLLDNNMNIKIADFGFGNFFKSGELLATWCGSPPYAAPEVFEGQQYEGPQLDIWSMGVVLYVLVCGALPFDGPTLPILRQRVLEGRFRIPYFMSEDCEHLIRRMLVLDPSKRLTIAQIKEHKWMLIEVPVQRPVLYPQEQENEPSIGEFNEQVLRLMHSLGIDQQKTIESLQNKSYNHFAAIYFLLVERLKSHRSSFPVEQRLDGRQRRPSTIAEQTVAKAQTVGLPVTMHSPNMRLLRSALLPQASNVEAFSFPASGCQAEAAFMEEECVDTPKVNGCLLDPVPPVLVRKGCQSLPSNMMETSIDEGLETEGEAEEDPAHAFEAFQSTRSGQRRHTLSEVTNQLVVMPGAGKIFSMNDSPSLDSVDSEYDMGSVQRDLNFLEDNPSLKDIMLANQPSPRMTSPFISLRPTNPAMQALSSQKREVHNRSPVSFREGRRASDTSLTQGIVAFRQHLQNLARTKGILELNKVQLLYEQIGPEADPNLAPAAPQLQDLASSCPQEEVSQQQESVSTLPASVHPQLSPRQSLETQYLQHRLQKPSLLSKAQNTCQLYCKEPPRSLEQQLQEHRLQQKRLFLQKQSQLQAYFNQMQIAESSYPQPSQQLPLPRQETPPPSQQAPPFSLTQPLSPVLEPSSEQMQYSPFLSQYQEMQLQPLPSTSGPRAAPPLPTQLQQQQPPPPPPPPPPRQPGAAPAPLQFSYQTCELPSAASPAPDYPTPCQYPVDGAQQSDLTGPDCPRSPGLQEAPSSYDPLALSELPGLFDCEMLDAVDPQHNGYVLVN

[6] = biological target: T2, Serine/threonine-protein kinase ULK1 (Homo sapiens) (UniProt O75385); assay: Inhibition of human ULK1 at 500 nM by HotSpot assay relative to control
T2 sequence (whole entry): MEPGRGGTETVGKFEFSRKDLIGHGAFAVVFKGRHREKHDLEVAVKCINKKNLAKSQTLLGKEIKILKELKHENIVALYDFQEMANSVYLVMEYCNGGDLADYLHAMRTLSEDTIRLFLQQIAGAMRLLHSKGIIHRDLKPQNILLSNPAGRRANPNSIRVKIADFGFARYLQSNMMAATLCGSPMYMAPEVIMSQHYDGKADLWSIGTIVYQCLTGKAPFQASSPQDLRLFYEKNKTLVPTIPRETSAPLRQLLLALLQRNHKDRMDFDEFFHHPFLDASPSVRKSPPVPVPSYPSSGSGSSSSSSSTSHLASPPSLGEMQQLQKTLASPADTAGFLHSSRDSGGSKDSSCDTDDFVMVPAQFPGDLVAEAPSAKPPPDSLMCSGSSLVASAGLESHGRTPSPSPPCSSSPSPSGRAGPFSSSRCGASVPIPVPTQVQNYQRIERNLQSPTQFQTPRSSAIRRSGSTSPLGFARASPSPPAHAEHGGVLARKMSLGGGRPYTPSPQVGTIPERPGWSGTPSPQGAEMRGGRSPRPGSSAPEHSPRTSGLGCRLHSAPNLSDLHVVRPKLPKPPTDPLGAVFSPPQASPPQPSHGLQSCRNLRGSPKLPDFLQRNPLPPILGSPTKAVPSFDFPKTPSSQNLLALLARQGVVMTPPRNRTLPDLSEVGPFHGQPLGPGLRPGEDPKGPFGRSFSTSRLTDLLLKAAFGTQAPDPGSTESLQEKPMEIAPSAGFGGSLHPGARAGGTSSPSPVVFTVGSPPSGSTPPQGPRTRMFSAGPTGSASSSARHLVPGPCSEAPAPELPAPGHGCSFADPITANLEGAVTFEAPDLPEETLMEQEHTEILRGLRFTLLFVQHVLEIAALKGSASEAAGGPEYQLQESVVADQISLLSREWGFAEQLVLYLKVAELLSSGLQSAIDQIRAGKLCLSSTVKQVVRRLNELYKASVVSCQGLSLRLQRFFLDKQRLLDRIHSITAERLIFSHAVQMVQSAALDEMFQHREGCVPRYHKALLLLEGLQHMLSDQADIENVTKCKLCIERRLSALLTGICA

Calcium/calmodulin-dependent protein kinase type 1D (Homo sapiens), sequence (Q8IU85 whole entry, looked up): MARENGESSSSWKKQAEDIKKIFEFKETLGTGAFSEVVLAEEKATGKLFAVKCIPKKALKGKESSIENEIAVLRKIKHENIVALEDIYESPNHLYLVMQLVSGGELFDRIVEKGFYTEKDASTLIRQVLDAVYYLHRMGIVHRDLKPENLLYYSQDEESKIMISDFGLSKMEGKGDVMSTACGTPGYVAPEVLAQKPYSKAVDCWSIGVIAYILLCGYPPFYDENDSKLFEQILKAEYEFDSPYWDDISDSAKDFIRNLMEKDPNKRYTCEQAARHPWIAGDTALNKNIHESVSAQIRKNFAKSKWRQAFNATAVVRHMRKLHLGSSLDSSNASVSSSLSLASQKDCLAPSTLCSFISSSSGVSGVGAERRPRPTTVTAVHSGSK

Compound	inhibition [1] [%]	inhibition [2] [%]	inhibition [3] [%]	inhibition [4] [%]	inhibition [5] [%]	inhibition [6] [%]
Oc1n[nH]c2nnc(-c3c(-c4ccccc4)nn4ccccc34)cc12	-3.04	4.34	1.44	11.9	14.5	0.87
Nc1n[nH]c2nnc(-c3c(-c4ccccc4)nn4ccccc34)cc12	4.06	7.41	0.62	13	6.36	2.87

Source: ChEMBL document CHEMBL5653615 (J Biol Chem, 2013)
